Measured values published in PubChem BioAssay (NCI).
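Cells were grown in 96-well plates and exposed to each compound for 48 hours at five concentrations; endpoints were interpolated linearly between bracketing concentrations, or set to the highest concentration if not reached. TGI marks complete inhibition of growth.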

What was measured:
Assay in all cases: DTP human tumour cell line panel, 48 h
HOP-92 NSCLC = tested on: HOP-92 NSCLC
RXF 393 renal = tested on: RXF 393 renal
DLD-1 colon = tested on: DLD-1 colon
SK-MEL-28 melanoma = tested on: SK-MEL-28 melanoma
LXFL 529 NSCLC = tested on: LXFL 529 NSCLC
SW-620 colon = tested on: SW-620 colon
HCT-116 colon = tested on: HCT-116 colon
CAKI-1 renal = tested on: CAKI-1 renal
TK-10 renal = tested on: TK-10 renal
SK-MEL-2 melanoma = tested on: SK-MEL-2 melanoma
SK-MEL-5 melanoma = tested on: SK-MEL-5 melanoma
MALME-3M melanoma = tested on: MALME-3M melanoma
SF-268 CNS = tested on: SF-268 CNS
LOX IMVI melanoma = tested on: LOX IMVI melanoma
OVCAR-8 ovarian = tested on: OVCAR-8 ovarian
XF 498 CNS = tested on: XF 498 CNS
SF-295 CNS = tested on: SF-295 CNS
SF-539 CNS = tested on: SF-539 CNS
MOLT-4 leukemia = tested on: MOLT-4 leukemia
HCC-2998 colon = tested on: HCC-2998 colon
OVCAR-4 ovarian = tested on: OVCAR-4 ovarian
SNB-75 CNS = tested on: SNB-75 CNS
NCI-H522 lung = tested on: NCI-H522 lung
M19-MEL melanoma = tested on: M19-MEL melanoma
OVCAR-3 ovarian = tested on: OVCAR-3 ovarian
CCRF-CEM leukemia = tested on: CCRF-CEM leukemia
RPMI-8226 leukemia = tested on: RPMI-8226 leukemia
SN12C renal = tested on: SN12C renal
COLO 205 colon = tested on: COLO 205 colon
UACC-62 melanoma = tested on: UACC-62 melanoma
UACC-257 melanoma = tested on: UACC-257 melanoma
ACHN renal = tested on: ACHN renal
DMS 273 small cell lung = tested on: DMS 273 small cell lung
KM12 colon = tested on: KM12 colon
A549 NSCLC = tested on: A549 NSCLC
HL-60(TB) leukemia = tested on: HL-60(TB) leukemia
DMS 114 small cell lung = tested on: DMS 114 small cell lung
SR leukemia = tested on: SR leukemia
M14 melanoma = tested on: M14 melanoma
EKVX NSCLC = tested on: EKVX NSCLC
NCI-H460 lung = tested on: NCI-H460 lung
HOP-62 NSCLC = tested on: HOP-62 NSCLC
786-0 renal = tested on: 786-0 renal
HT29 colon = tested on: HT29 colon
SK-OV-3 ovarian = tested on: SK-OV-3 ovarian
IGROV1 ovarian = tested on: IGROV1 ovarian
HCT-15 colon = tested on: HCT-15 colon

Measured: TGI

Cn1ccc2c(C(=O)c3ccccc3)cccc2c1=O
81.1 µM: NCI-H522 lung
> 100 µM: HOP-92 NSCLC | RXF 393 renal | DLD-1 colon | SK-MEL-28 melanoma | LXFL 529 NSCLC | SW-620 colon | HCT-116 colon | CAKI-1 renal | TK-10 renal | SK-MEL-2 melanoma | SK-MEL-5 melanoma | MALME-3M melanoma | SF-268 CNS | LOX IMVI melanoma | OVCAR-8 ovarian | XF 498 CNS | SF-539 CNS | MOLT-4 leukemia | HCC-2998 colon | OVCAR-4 ovarian | M19-MEL melanoma | OVCAR-3 ovarian | CCRF-CEM leukemia | RPMI-8226 leukemia | SN12C renal | COLO 205 colon | UACC-62 melanoma | UACC-257 melanoma | ACHN renal | DMS 273 small cell lung | KM12 colon | A549 NSCLC | DMS 114 small cell lung | SR leukemia | M14 melanoma | EKVX NSCLC | NCI-H460 lung | 786-0 renal | HT29 colon | SK-OV-3 ovarian | IGROV1 ovarian | HCT-15 colon
88.9 µM: HL-60(TB) leukemia
93.7 µM: HOP-62 NSCLC
72.3 µM: SNB-75 CNS
66.9 µM: SF-295 CNS
